Measurements published in US5164295A, “Method for identifying amyloid protein-extracellular matrix protein affinity altering compounds” (The Upjohn Company, priority 1991, dated 1992).

Legend:
[1] = molecular target: T1, HSPG binding to AAP695 /s (Homo sapiens, UniProt P05067); test: Effect of test compounds on intact HSPG binding to immobilized AAP695 /s (ELISA); conditions: for Activity: binding of intact HSPG, percentage ± SD of control: AAP695 /S, HSPG 2 μg/ml; for HSPG binding, % of control: AAP695
T1 construct: maintained the entire extracellular portion of the AAP; made in house; host or cells: insect cells (recombinant baculovirus)
Experimental: (§1) The assay comprised immobilizing AAP695 /s which was then exposed to free HSPG in the absence or presence of test compounds. Other aspects of the assay included exposing free HSPG to either immobilized AAP751 /s, or AAP770 /s, each in the absence or presence of test compounds. The assay was also performed with fibronectin as the immobilized protein in order to provide a positive control. In each case, a series of concentrations of HSPG and test compounds was used. Additionally, to determine whether or not the carbohydrate moiety of HSPG was involved in the binding to immobilized components, the carbohydrate moiety of HSPG was removed and assays were performed using the carbohydrate-free HSPG core protein. The test compounds used in experiments described here include heparin, dextran sulfate, chondroitin sulfate, dermatan sulfate, fibronectin, gelatin, bovine serum albumin (BSA), Ca^++ (CaCl2), Mg^++ (MgCl2), Mn^++ (MnCl2), Co^++ (Co(NO3)2), and Zn^++ (ZnCl2).
(§2) The assay used in studying the interaction between HSPG and protein ligands was an ELISA technique. Briefly, polystyrene micro-titer plates (Linbro, Flow Lab Inc.) were coated with a 100 μl solution, containing 1 μg/ml of the protein of interest (one of the three forms of AAP or fibronectin) in 20 mM NaHCO3 buffer pH 9.6. After incubation overnight at 4° C., the plates were rinsed with 0.15M NaCl, 20 mM Tris-Cl pH 7.5 (TBS). The plates were then incubated with 150 μl of 1% BSA in TBS for 2 hours at 37° C. to block the residual hydrophobic surface on the wells. After rinsing with TBS containing 0.05% (w/v) Tween 20 (TBS-Tween), 100 μl of various concentrations of HSPG in TBS-Tween were added. The plates were left overnight at 4° C., to permit maximum binding of HSPG to the coated proteins. The plates were then washed extensively and incubated for 2 hours at 37° C., with 100 μl of anti-HSPG diluted in TBS-Tween containing 0.1% BSA. The plates were washed again and incubated for another 2 hours with 100 μl of goat anti-rabbit-IgG conjugated with alkaline phosphatase (1:2000 dilution) in TBS-Tween containing BSA as above. Finally, after further washing, the bound antibodies were detected by adding an alkaline phosphatase substrate solution (100 μl) containing 2 mg/ml p-nitrophenyl phosphate, 0.1 mM ZnCl2, 1 mM MgCl2 and 100 mM glycine pH 10. The plates were left at room temperature for 15-120 minutes depending on the protein tested. The enzyme reaction was stopped by addition of 50 μl of 2M NaOH. The absorbance of the released p-nitrophenol was measured at 405 nm with a Titertek Multiscan/MCC 340 (Flow Lab. Ltd.). The amounts of HSPG bound were determined by the net OD405 after substracting the OD from the blank wells in which the HSPG incubation step was omitted. When the actual amounts of HSPG bound were to be calculated, a set of standards (0.05-50 ng/well) of HSPG in NaHCO3 buffer were pre-coated into wells on the same plates as the test proteins. The incubations proceeded as described above omitting the incubation of the HSPG solution with the HSPG standard coated wells. The actual amounts of HSPG bound to the test proteins were calculated from the OD405 standard curve produced by the HSPG standards using a Titersoft II E.J.A. software program (Flow Lab. Ltd.).
(§3) Heparin and dextran sulfate, respectively, were each used as test compounds to determine their effect on the HSPG binding to AAP forms and fibronectin. Various concentrations of heparin or dextran sulfate were added together with a constant amount of HSPG to wells coated with AAPs for fibronectin.

[2] = molecular target: T2, HSPG binding to AAP751 /s (Homo sapiens, UniProt P05067); test: Effect of test compounds on intact HSPG binding to immobilized AAP751 /s (ELISA); set-up: effect of increasing concentration on degree of HSPG binding to AAP751 /s: dose or concentration left out as unconfirmed; conditions: for Activity: binding of intact HSPG, percentage ± SD of control: AAP751 /S, HSPG 2 μg/ml; for HSPG binding, % of control: AAP751
T2 construct: maintained the entire extracellular portion of the AAP; made in house; host or cells: insect cells (recombinant baculovirus)
Experimental: as §1, §2, §3

[3] = tested on: HSPG binding to fibronectin; test: Effect of test compounds on intact HSPG binding to immobilized fibronectin (ELISA); set-up: species or system bovine; effect of increasing concentration on degree of HSPG binding to fibronectin: dose or concentration left out as unconfirmed; conditions: for Activity: binding of intact HSPG, percentage ± SD of control: Fibronectin, HSPG 2 μg/ml; for inhibition of HSPG binding to immobilized fibronectin: test compound 50 μg/ml; for HSPG binding, % of control: fibronectin
Experimental: as §1
Fibronectin (from bovine plasma), heparin (grade II from porcine intestinal mucosa, average molecular weight=[…]), heparan sulfate, chondroitin sulfate, dextran sulfate, BSA, and alkaline phosphatase substrate were obtained from Sigma, St. Louis, Mo. Alkaline phosphatase conjugated goat anti-rabbit IgG was obtained from Boehringer-Manneheim, and heparitinase from ICN Biochemicals.
as §2, §3

[4] = tested on: HSPG binding to AAP proteins and fibronectin; test: Effect of test compounds on HSPG binding, stated collectively for the immobilized proteins; conditions: for effect on HSPG binding to any AAP protein tested (negated sentence: 'Neither ... had any effect'): even at 4000 μg/ml
Experimental: as §1, §2
In addition to test compounds described above, other compounds were tested to determine their effect upon HSPG-AAP binding.

[5] = test compound 500 μg/ml (Table II)

With `[Ca+2].[Cl-].[Cl-]` [CaCl2] the “Activity: binding of intact HSPG, percentage ± SD of control” value (“Activity … percentage ± SD of control” below) ([1]; addition 4 mM) was 92.5 ± 7.7%, the “Activity … percentage ± SD of control” value ([2]; addition 4 mM) was 105.5 ± 3.5% and the “Activity … percentage ± SD of control” value ([3]; addition 4 mM) was 101.5 ± 2.1%. The “effect of divalent metal ion on HSPG binding” value (shortened to “effect of divalent metal ion”) ([4]; 3 mM) was “unaffected”.

`O=[N+]([O-])[O-].O=[N+]([O-])[O-].[Co+2]` [Co (NO3), Co(NO3)2] was tested, and the “Activity … percentage ± SD of control” value ([1]; addition 0.1 mM) was 97.3 ± 2.5%, the “Activity … percentage ± SD of control” value ([2]; addition 0.1 mM) was 91 ± 8.5% and the “Activity … percentage ± SD of control” value ([3]; addition 0.1 mM) was 100 ± 14%. For the same compound, the “effect of divalent metal ion” value ([4]; 0.1 mM) was “unaffected”.

In the case of `[Cl-].[Cl-].[Mg+2]` [MgCl2], the “Activity … percentage ± SD of control” value ([1]; addition 10 mM) is reported as 102.5 ± 6.4%, the “Activity … percentage ± SD of control” value ([2]; addition 10 mM) is reported as 102.5 ± 7.8% and the “Activity … percentage ± SD of control” value ([3]; addition 10 mM) is reported as 105 ± 9.9%. The “effect of divalent metal ion” value ([4]; 10 mM) was “unaffected”.

`[Cl][Mn][Cl]` [MnCl2] was tested, and the “Activity … percentage ± SD of control” value ([1]; addition 4 mM) was 107 ± 18.3%, the “Activity … percentage ± SD of control” value ([2]; addition 4 mM) was 106 ± 19.7% and the “Activity … percentage ± SD of control” value ([3]; addition 4 mM) was 101.5 ± 9.2%. For the same compound, the “effect of divalent metal ion” value ([4]; 4 mM) was “unaffected”.

In the case of `[Cl-].[Cl-].[Zn+2]` [ZnCl2], the “Activity … percentage ± SD of control” value ([1]; addition 0.1 mM) is reported as 31 ± 8.1%, the “inhibition of HSPG binding to AAP695 /s” value ([1]; test compound 0.1 mM) is reported as 70% and the “Activity … percentage ± SD of control” value ([2]; addition 0.1 mM) is reported as 85.5 ± 9%. For the same compound, the “Activity … percentage ± SD of control” value ([3]; addition 0.1 mM) was 44 ± 14.6% and the “inhibition of HSPG binding to fibronectin” value ([3]; test compound 0.1 mM) was 55%.

For “Fibronectin: Fibronectin from bovine plasma (Sigma), added in solution as test compound”, the “Activity … percentage ± SD of control” value ([1]; addition 50 μg/ml) was 76.3 ± 9.5%, the “Activity … percentage ± SD of control” value ([2]; addition 50 μg/ml) was 103.7 ± 14.5% and the “Activity … percentage ± SD of control” value ([3]; addition 50 μg/ml) was 33.4 ± 18.4%. The “inhibition of HSPG binding to immobilized fibronectin” value [3] was 65% and the “interference with HSPG binding to the AAPs” value ([4]; test compound 50 μg/ml in solution, the AAPs) was “only moderately interferes”.

Gelatin was tested, and the “Activity … percentage ± SD of control” value ([1]; addition 50 μg/ml) was 50.5 ± 18.4%, the “inhibition of HSPG binding to AAP695 /s” value ([1]; test compound 50 μg/ml) was 50% and the “Activity … percentage ± SD of control” value ([2]; addition 50 μg/ml) was 60.2 ± 8.3%. For the same compound, the “inhibition of HSPG binding to AAP751 /s” value ([2]; test compound 50 μg/ml) was 40%, the “Activity … percentage ± SD of control” value ([3]; addition 50 μg/ml) was 28.5 ± 16.5% and the “inhibition of HSPG binding to immobilized fibronectin” value [3] was 70%.

With chondroitin sulfate the “Activity … percentage ± SD of control” value ([1]; addition 4 mg/ml) was 110 ± 15.3%, the “Activity … percentage ± SD of control” value ([2]; addition 4 mg/ml) was 110 ± 24.2% and the “Activity … percentage ± SD of control” value ([3]; addition 4 mg/ml) was 107 ± 10.8%. For the same compound, the “effect on HSPG binding to any AAP protein tested (negated sentence: 'Neither ... had any effect')” value [4] was “had any effect”.

dermatan sulfate was tested, and the “Activity … percentage ± SD of control” value ([1]; addition 4 mg/ml) was 121 ± 14%, the “Activity … percentage ± SD of control” value ([2]; addition 4 mg/ml) was 127 ± 30% and the “Activity … percentage ± SD of control” value ([3]; addition 4 mg/ml) was 107 ± 20.6%. For the same compound, the “effect on HSPG binding to any AAP protein tested (negated sentence: 'Neither ... had any effect')” value [4] was “had any effect”.

In the case of dextran sulfate, the “mode of inhibition of HSPG binding to AAP695 /s” value [1] is reported as “probably competitive”, the “Activity … percentage ± SD of control” value ([1]; addition 500 μg/ml) is reported as 8.5 ± 2.4% and the “HSPG binding, % of control” value ([1]; test compound 31.2 μg/ml) is reported as 14%. The “HSPG binding, % of control” value ([1]; test compound 62.5 μg/ml) was 11%, the “HSPG binding, % of control” value ([1]; test compound 125 μg/ml) was 9% and the “HSPG binding, % of control” value ([1]; test compound 250 μg/ml) was 11%. The “HSPG binding, % of control” value [1, 5] was 11%, the “inhibition of HSPG binding to AAP695 /s” value ([1]; test compound 32 μg/ml) was “about 85%” and the “mode of inhibition of HSPG binding to AAP751 /s” value [2] was “noncompetitive”. The “Activity … percentage ± SD of control” value ([2]; addition 500 μg/ml) was 63 ± 8.6%, the “HSPG binding, % of control” value ([2]; test compound 31.2 μg/ml) was 74% and the “HSPG binding, % of control” value ([2]; test compound 62.5 μg/ml) was 71%. The “HSPG binding, % of control” value ([2]; test compound 125 μg/ml) was 67%, the “HSPG binding, % of control” value ([2]; test compound 250 μg/ml) was 68% and the “HSPG binding, % of control” value [2, 5] was 63%. The “effect of increasing concentration on degree of HSPG binding to AAP751 /s” value ([2]; concentration increased) was “did not further decrease”, the “inhibition of HSPG binding to AAP751 /s” value ([2]; test compound 32 μg/ml) was 30% and the “mode of inhibition of HSPG binding to fibronectin” value [3] was “noncompetitive”. For the same compound, the “Activity … percentage ± SD of control” value ([3]; addition 500 μg/ml) was 71 ± 10.8%, the “effect of increasing concentration on degree of HSPG binding to fibronectin” value ([3]; concentration increased) was “did not further decrease” and the “HSPG binding, % of control” value ([3]; test compound 31.2 μg/ml) was 67%. The “HSPG binding, % of control” value ([3]; test compound 62.5 μg/ml) was 70%, the “HSPG binding, % of control” value ([3]; test compound 125 μg/ml) was 68% and the “HSPG binding, % of control” value ([3]; test compound 250 μg/ml) was 63%. The “HSPG binding, % of control” value [3, 5] was 60% and the “inhibition of HSPG binding to fibronectin” value ([3]; test compound 32 μg/ml) was 30%.
